In patent publication US20140364431A1, “Quinoline and cinnoline derivatives and their applications” (Shenyang Pharmaceutical University, priority 2011, published 2014):
Converted amounts (≈) assume the structure as drawn. Where a name gives a salt, the structure may show the parent alone. Read-outs that look alike come from different tables or passages of the source.

Experiments:
[1] = test system: H460 (human lung cancer cell); assay: In vitro anti-tumor cellular activity (MTT), H460; type: cell-based; details: for IC50: Homo sapiens, read-out: H460 IC50
[2] = test system: U87MG (Human malignant glioblastoma cells); assay: In vitro anti-tumor cellular activity (MTT), U87MG; type: cell-based; details: for IC50: Homo sapiens, U-87 MG, read-out: U87MG IC50
[3] = test system: HT-29 (colon cancer cell); assay: In vitro anti-tumor cellular activity (MTT), HT-29; type: cell-based, human; details: for IC50: Homo sapiens, read-out: HT-29 IC50
[4] = test system: MKN-45 (human gastric carcinoma cell); assay: In vitro anti-tumor cellular activity (MTT), MKN-45; type: cell-based; details: for IC50: Homo sapiens, read-out: MKN-45 IC50
[5] = test system: SMMC-7721 (hepatoma cell); assay: In vitro anti-tumor cellular activity (MTT), SMMC-7721; type: cell-based, human; details: for IC50: Homo sapiens, read-out: SMMC-7721 IC50

SMILES: N.N.[Cl][Pt][Cl] [Cisplatin, reference compound]
- H460 IC50 ([1]; MTT, 72 hours, H460): 0.23 µg/mL
- U87MG IC50 ([2]; MTT, 72 hours, U87MG): 0.19 µg/mL
- HT-29 IC50 ([3]; MTT, 72 hours, HT-29): 1 µg/mL
- MKN-45 IC50 ([4]; MTT, 72 hours, MKN-45): 0.68 µg/mL
- SMMC-7721 IC50 ([5]; MTT, 72 hours, SMMC-7721): 0.9 µg/mL

SMILES: COc1cc2c(Oc3ccc(NC(=O)c4nn(-c5ccc(Br)cc5)c5ccccc5c4=O)cc3F)ccnc2cc1OCCCN1CCCCC1.Cl.Cl [Example 3, N-(3-fluoro-4-((6-methoxy-7-(3-(piperidin-1-yl)propoxy)quinolin-4-yl)oxy)phenyl)-1-(4-bromophenyl)-4-oxo-1,4-dihydrocinnoline-3-carboxamide dihydrochloride]
- IC50 ([1]; NCI-H460, 72 h): 0.3 µg/mL
- IC50 ([2]; 72 h): 1.2 µg/mL
- IC50 ([3]; HT-29, 72 h): 0.86 µg/mL
- IC50 ([4]; MKN-45, 72 h): 0.34 µg/mL
- IC50 ([5]; SMMC-7721, 72 h): 0.63 µg/mL

SMILES: COc1cc2c(Oc3ccc(NC(=O)c4nn(-c5ccccc5C(F)(F)F)c5ccccc5c4=O)cc3F)ccnc2cc1OCCCN1CCOCC1 [Example 4, N-(3-fluoro-4-((6-methoxy-7-(3-(morpholin-4-ylpropoxy)quinolin-4-yl)oxy)phenyl)-1-(2-(trifluoromethyl)phenyl)-4-oxo-1,4-dihydrocinnoline-3-carboxamidedihydrochloride]
- IC50 ([1]; NCI-H460, 72 h): 1 µg/mL
- IC50 ([2]; 72 h): 0.8 µg/mL
- IC50 ([3]; HT-29, 72 h): 1.2 µg/mL
- IC50 ([4]; MKN-45, 72 h): 2 µg/mL
- IC50 ([5]; SMMC-7721, 72 h): 0.9 µg/mL

SMILES: COc1cc2c(Oc3ccc(NC(=O)c4nn(-c5cccc(C(F)(F)F)c5)c5ccccc5c4=O)cc3F)ccnc2cc1OCCCN1CCCCC1 [Example 6, N-(3-fluoro-4-((6-methoxy-7-(3-(piperidin-1-yl)propoxy)quinolin-4-yl)oxy)phenyl)-1-(3-(trifluoromethyl)phenyl)-4-oxo-1,4-dihydrocinnoline-3-carboxamide]
- IC50 ([1]; NCI-H460, 72 h): 1.7 µg/mL (≈ 2.29 µM)
- IC50 ([2]; 72 h): 1.4 µg/mL (≈ 1.89 µM)
- IC50 ([3]; HT-29, 72 h): 0.63 µg/mL (≈ 0.849 µM)
- IC50 ([4]; MKN-45, 72 h): 0.1 µg/mL (≈ 0.135 µM)
- IC50 ([5]; SMMC-7721, 72 h): 1.3 µg/mL (≈ 1.75 µM)

SMILES: COc1cc2c(Oc3ccc(NC(=O)c4nn(-c5cccc(F)c5)c5ccccc5c4=O)cc3F)ccnc2cc1OCCCN1CCCCC1 [Example 9, N-(3-fluoro-4-((6-methoxy-7-(3-(piperidin-1-yl)propoxy)quinolin-4-yl)oxy)phenyl)-1-(3-fluorophenyl)-4-oxo-1,4-dihydrocinnoline-3-carboxamide]
- IC50 ([1]; NCI-H460, 72 h): 0.007 µg/mL (≈ 0.0101 µM)
- IC50 ([2]; 72 h): 1.2 µg/mL (≈ 1.73 µM)
- IC50 ([3]; HT-29, 72 h): 0.17 µg/mL (≈ 0.246 µM)
- IC50 ([4]; MKN-45, 72 h): 0.0075 µg/mL (≈ 0.0108 µM)
- IC50 ([5]; SMMC-7721, 72 h): 0.65 µg/mL (≈ 0.94 µM)

SMILES: COc1cc2c(Oc3ccc(NC(=O)c4nn(-c5ccc(Cl)cc5)c5ccccc5c4=O)cc3F)ccnc2cc1OCCCN1CCCCC1 [Example 10, N-(3-fluoro-4-((6-methoxy-7-(3-(piperidin-1-yl)propoxy)quinolin-4-yl)oxy)phenyl)-1-(4-chlorophenyl)-4-oxo-1,4-dihydrocinnoline-3-carboxamide]
- IC50 ([1]; NCI-H460, 72 h): 0.06 µg/mL (≈ 0.0847 µM)
- IC50 ([2]; 72 h): 0.86 µg/mL (≈ 1.21 µM)
- IC50 ([3]; HT-29, 72 h): 0.42 µg/mL (≈ 0.593 µM)
- IC50 ([4]; MKN-45, 72 h): 0.087 µg/mL (≈ 0.123 µM)
- IC50 ([5]; SMMC-7721, 72 h): 1 µg/mL (≈ 1.41 µM)

SMILES: COc1cc2c(Oc3ccc(NC(=O)c4nn(-c5ccc(F)cc5Br)c5ccccc5c4=O)cc3F)ccnc2cc1OCCCN1CCCC1 [Example 18, N-(3-fluoro-4-((6-methoxy-7-(3-(pyrrolidin-1-yl)propoxy)quinolin-4-yl)oxy)phenyl)-1-(2-bromo-4-fluorophenyl)-4-oxo-1,4-dihydrocinnoline-3-carboxamide]
- IC50 ([1]; NCI-H460, 72 h): 1.3 µg/mL (≈ 1.72 µM)
- IC50 ([2]; 72 h): 0.8 µg/mL (≈ 1.06 µM)
- IC50 ([3]; HT-29, 72 h): 0.9 µg/mL (≈ 1.19 µM)
- IC50 ([4]; MKN-45, 72 h): 1.5 µg/mL (≈ 1.98 µM)
- IC50 ([5]; SMMC-7721, 72 h): 2.1 µg/mL (≈ 2.78 µM)

SMILES: COc1cc2c(Oc3ccc(NC(=O)c4nn(-c5cc(C(F)(F)F)ccc5Cl)c5ccccc5c4=O)cc3F)ccnc2cc1OCCCN1CCCC1 [Example 22, N-(3-fluoro-4-((6-methoxy-7-(3-(pyrrolidin-1-yl)propoxy)quinolin-4-yl)oxy)phenyl)-1-(2-chloro-5-(trifluoromethyl)phenyl)-4-oxo-1,4-dihydrocinnoline-3-carboxamide]
- IC50 ([1]; NCI-H460, 72 h): 0.54 µg/mL (≈ 0.709 µM)
- IC50 ([2]; 72 h): 0.96 µg/mL (≈ 1.26 µM)
- IC50 ([3]; HT-29, 72 h): 0.81 µg/mL (≈ 1.06 µM)
- IC50 ([4]; MKN-45, 72 h): 0.28 µg/mL (≈ 0.367 µM)
- IC50 ([5]; SMMC-7721, 72 h): 0.54 µg/mL (≈ 0.709 µM)

SMILES: COc1cc2c(Oc3ccc(NC(=O)c4nn(-c5ccc(C)cc5C)c5ccccc5c4=O)cc3F)ccnc2cc1OCCCN1CCCC1 [Example 25, N-(3-fluoro-4-((6-methoxy-7-(3-(pyrrolidin-1-yl)propoxy)quinolin-4-yl)oxy)phenyl)-1-(2,4-dimethylphenyl)-4-oxo-1,4-dihydrocinnoline-3-carboxamide]
- IC50 ([1]; NCI-H460, 72 h): 0.89 µg/mL (≈ 1.29 µM)
- IC50 ([2]; 72 h): 2.9 µg/mL (≈ 4.22 µM)
- IC50 ([3]; HT-29, 72 h): 1.1 µg/mL (≈ 1.6 µM)
- IC50 ([4]; MKN-45, 72 h): 1.5 µg/mL (≈ 2.18 µM)
- IC50 ([5]; SMMC-7721, 72 h): 0.76 µg/mL (≈ 1.11 µM)

SMILES: COc1cc2c(Oc3ccc(NC(=O)c4nn(-c5ccc(Cl)cc5Cl)c5ccccc5c4=O)cc3F)ccnc2cc1OCCCN1CCCCC1 [Example 27, N-(3-fluoro-4-((6-methoxy-7-(3-(piperidin-1-yl)propoxy)quinolin-4-yl)oxy)phenyl)-1-(2,4-dichlorophenyl)-4-oxo-1,4-dihydrocinnoline-3-carboxamide]
- IC50 ([1]; NCI-H460, 72 h): 1.5 µg/mL (≈ 2.02 µM)
- IC50 ([2]; 72 h): 0.6 µg/mL (≈ 0.808 µM)
- IC50 ([3]; HT-29, 72 h): 1.8 µg/mL (≈ 2.42 µM)
- IC50 ([4]; MKN-45, 72 h): 2.1 µg/mL (≈ 2.83 µM)
- IC50 ([5]; SMMC-7721, 72 h): 0.9 µg/mL (≈ 1.21 µM)

SMILES: COc1cc2c(Oc3ccc(NC(=O)c4nn(-c5c(Cl)cccc5Cl)c5ccccc5c4=O)cc3F)ccnc2cc1OCCCN1CCCCC1 [Example 29, N-(3-fluoro-4-((6-methoxy-7-(3-(piperidin-1-yl)propoxy)quinolin-4-yl)oxy)phenyl)-1-(2,6-dichlorophenyl)-4-oxo-1,4-dihydrocinnoline-3-carboxamide]
- IC50 ([1]; NCI-H460, 72 h): 0.77 µg/mL (≈ 1.04 µM)
- IC50 ([2]; 72 h): 0.74 µg/mL (≈ 0.996 µM)
- IC50 ([3]; HT-29, 72 h): 0.44 µg/mL (≈ 0.592 µM)
- IC50 ([4]; MKN-45, 72 h): 0.67 µg/mL (≈ 0.902 µM)
- IC50 ([5]; SMMC-7721, 72 h): 1.2 µg/mL (≈ 1.62 µM)

SMILES: COc1cc2c(Oc3ccc(NC(=O)c4nn(-c5c(Cl)cccc5Cl)c5ccccc5c4=O)cc3F)ccnc2cc1OCCCN1CCC(C)CC1 [Example 30, N-(3-fluoro-4-((6-methoxy-7-(3-(4-methylpiperidin-1-yl)propoxy)quinolin-4-yl)oxy)phenyl)-1-(2,6-dichlorophenyl)-4-oxo-1,4-dihydrocinnoline-3-carboxamide]
- IC50 ([1]; NCI-H460, 72 h): 0.7 µg/mL (≈ 0.925 µM)
- IC50 ([2]; 72 h): 0.27 µg/mL (≈ 0.357 µM)
- IC50 ([3]; HT-29, 72 h): 0.49 µg/mL (≈ 0.648 µM)
- IC50 ([4]; MKN-45, 72 h): 0.5 µg/mL (≈ 0.661 µM)
- IC50 ([5]; SMMC-7721, 72 h): 0.1 µg/mL (≈ 0.132 µM)

SMILES: COc1cc2c(Oc3ccc(NC(=O)c4nn(-c5c(Cl)cccc5Cl)c5ccccc5c4=O)cc3F)ccnc2cc1OCCCN1CCCC1 [Example 31, N-(3-fluoro-4-((6-methoxy-7-(3-(pyrrolidin-1-yl)propoxy)quinolin-4-yl)oxy)phenyl)-1-(2,6-dichlorophenyl)-4-oxo-1,4-dihydrocinnoline-3-carboxamide]
- IC50 ([1]; NCI-H460, 72 h): 0.77 µg/mL (≈ 1.06 µM)
- IC50 ([2]; 72 h): 0.26 µg/mL (≈ 0.357 µM)
- IC50 ([3]; HT-29, 72 h): 0.27 µg/mL (≈ 0.371 µM)
- IC50 ([4]; MKN-45, 72 h): 0.18 µg/mL (≈ 0.247 µM)
- IC50 ([5]; SMMC-7721, 72 h): 0.33 µg/mL (≈ 0.453 µM)

SMILES: COc1cc2c(Oc3ccc(NC(=O)c4nn(-c5ccccc5Cl)c5ccccc5c4=O)cc3F)ccnc2cc1OCCCN1CCOCC1 [Example 33, N-(3-fluoro-4-((6-methoxy-7-(3-(morpholin-4-yl)propoxy)quinolin-4-yl)oxy)phenyl)-1-(2-chlorophenyl)-4-oxo-1,4-dihydrocinnoline-3-carboxamide]
- IC50 ([1]; NCI-H460, 72 h): 2.2 µg/mL (≈ 3.1 µM)
- IC50 ([2]; 72 h): 1.4 µg/mL (≈ 1.97 µM)
- IC50 ([3]; HT-29, 72 h): 0.9 µg/mL (≈ 1.27 µM)
- IC50 ([5]; SMMC-7721, 72 h): 1.6 µg/mL (≈ 2.25 µM)

SMILES: COc1cc2c(Oc3ccc(NC(=O)c4nn(-c5ccccc5Br)c5ccccc5c4=O)cc3F)ccnc2cc1OCCCN1CCOCC1 [Example 34, N-(3-fluoro-4-((6-methoxy-7-(3-(morpholin-4-yl)propoxy)quinolin-4-yl)oxy)phenyl)-1-(2-bromophenyl)-4-oxo-1,4-dihydrocinnoline-3-carboxamide]
- IC50 ([1]; NCI-H460, 72 h): 0.7 µg/mL (≈ 0.928 µM)
- IC50 ([2]; 72 h): 0.65 µg/mL (≈ 0.861 µM)
- IC50 ([3]; HT-29, 72 h): 0.43 µg/mL (≈ 0.57 µM)
- IC50 ([4]; MKN-45, 72 h): 1.3 µg/mL (≈ 1.72 µM)
- IC50 ([5]; SMMC-7721, 72 h): 1.5 µg/mL (≈ 1.99 µM)

SMILES: COc1cc2c(Oc3ccc(NC(=O)c4nn(-c5ccccc5OC(F)(F)F)c5ccccc5c4=O)cc3F)ccnc2cc1OCCCN1CCOCC1 [Example 37, N-(3-fluoro-4-((6-methoxy-7-(3-(morpholin-4-yl)propoxy)quinolin-4-yl)oxy)phenyl)-1-(2-(trifluoromethoxy)phenyl)-4-oxo-1,4-dihydrocinnoline-3-carboxamide]
- IC50 ([1]; NCI-H460, 72 h): 1.9 µg/mL (≈ 2.5 µM)
- IC50 ([2]; 72 h): 2.1 µg/mL (≈ 2.76 µM)
- IC50 ([3]; HT-29, 72 h): 0.9 µg/mL (≈ 1.18 µM)
- IC50 ([4]; MKN-45, 72 h): 2.3 µg/mL (≈ 3.03 µM)
- IC50 ([5]; SMMC-7721, 72 h): 1.5 µg/mL (≈ 1.97 µM)

SMILES: COc1cc2c(Oc3ccc(NC(=O)c4nn(-c5cccc(F)c5)c5ccccc5c4=O)cc3F)cnnc2cc1OCCCN1CCN(C)CC1 [Example 62, N-(3-fluoro-4-((6-methoxy-7-(3-(4-methylpiperazin-1-yl)propoxy)cinnolin-4-yl)oxy)phenyl)-1-(3-fluorophenyl)-4-oxo-1,4-dihydrocinnoline-3-carboxamide]
- IC50 ([1]; NCI-H460, MTT, 72 hours, H460): 0.8 µg/mL (≈ 1.13 µM)
- IC50 ([2]; MTT, 72 hours, U87MG): 1.4 µg/mL (≈ 1.98 µM)
- IC50 ([3]; MTT, 72 hours, HT-29): 2.1 µg/mL (≈ 2.97 µM)
- IC50 ([4]; MTT, 72 hours, MKN-45): 3.6 µg/mL (≈ 5.09 µM)
- IC50 ([5]; MTT, 72 hours, SMMC-7721): 2.1 µg/mL (≈ 2.97 µM)
